Biological target: T1, human PAD4 (Homo sapiens, UniProt Q9UM07)
T1 construct: human PAD4 (NM_012387), A2-P663, was PCR amplified; His-SUMO (N, cleaved yes); made in house; host or cells: E. coli BL21(DE3)
Test: In vitro PAD4 BAEE biochemical assay
Conditions: BAEE substrate 3 mM, 5 nM PAD4, 2 mM calcium chloride; geometric mean of multiple experiments
In short: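 Recombinant PAD4 (5 nM final) with 2 mM CaCl2 was preincubated with compound for 30 min at 25 °C in MOPS pH 7.6 buffer with DTT, then reacted with 3 mM BAEE for 2 h at 25 °C. Released ammonia was detected fluorimetrically with o-phthalaldehyde/DTT; IC50 from four-parameter fit, geometric mean of experiments.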

T1 sequence (Q9UM07 2-663): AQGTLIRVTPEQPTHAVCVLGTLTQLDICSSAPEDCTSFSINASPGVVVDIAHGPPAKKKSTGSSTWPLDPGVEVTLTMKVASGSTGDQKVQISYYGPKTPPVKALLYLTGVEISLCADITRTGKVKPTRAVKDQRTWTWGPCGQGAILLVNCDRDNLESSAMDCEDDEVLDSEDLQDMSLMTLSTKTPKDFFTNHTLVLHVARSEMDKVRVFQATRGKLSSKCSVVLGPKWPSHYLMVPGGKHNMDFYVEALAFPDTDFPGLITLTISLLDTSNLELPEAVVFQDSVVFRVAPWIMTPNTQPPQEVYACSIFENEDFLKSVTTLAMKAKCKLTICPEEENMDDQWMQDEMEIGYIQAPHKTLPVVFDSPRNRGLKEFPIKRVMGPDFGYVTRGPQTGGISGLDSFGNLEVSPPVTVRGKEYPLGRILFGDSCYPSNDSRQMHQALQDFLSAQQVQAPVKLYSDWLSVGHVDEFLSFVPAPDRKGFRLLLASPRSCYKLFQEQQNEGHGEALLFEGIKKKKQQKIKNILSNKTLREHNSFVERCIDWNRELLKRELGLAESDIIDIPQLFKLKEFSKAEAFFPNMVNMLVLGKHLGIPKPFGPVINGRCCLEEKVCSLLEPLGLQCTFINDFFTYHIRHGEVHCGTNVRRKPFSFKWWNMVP

| Structure (SMILES) | IC50 [nM] |
| --- | --- |
| COc1cc(C(=O)N2CCC[C@@H](N)C2)cc2nc(-c3cc4ccc5nc4n3CCCCCc3cnn(C)c3C(=O)N[C@@H]5C)n(C)c12 [Example 172, (2~{R})-16-[5-[(3~{R})-3-aminopiperidine-1-carbonyl]-7-methoxy-1-methyl-benzimidazol-2-yl]-2,6-dimethyl-3,6,7,15,21-pentazatetracyclo[13.5.2.0^{5,9}.0^{18,22}] docosa-1(21),5(9),7,16,18(22),19-hexaen-4-one] | 101 |
| COc1cc(C(=O)N2CCC[C@@H](N)C2)cc2nc(-c3cc4ccc5nc4n3C[C@@H]3C[C@H]3CO[C@H](C)CC(=O)N[C@@H]5C)n(C)c12 [Example 268, (5~{R},8~{R},12~{R})-18-[5-[(3~{R})-3-aminopiperidine-1-carbonyl]-7-methoxy-1-methyl-benzimidazol-2-yl]-8,12-dimethyl-7-oxa-1,11,20-triazatetracyclo[11.5.2.0^{3,5}.0^{16,19}] icosa-13(20),14,16(19),17-tetraen-10-one] | 137 |
| COc1cc(C(=O)N2[C@H]3CC[C@@H]2[C@H](N)C3)cc2nc(-c3cc4ccc5nc4n3CCCCC[C@H]3C[C@@H]3C(=O)N[C@@H]5C)n(C)c12 (single isomer, unassigned) [Example 224, (2˜{R},5˜{S},7˜{S})-14-[5-[(1˜{R},2˜{R},4˜{S})-2-amino-7-azabicyclo[2.2.1]heptane-7-carbonyl]-7-methoxy-1-methyl-benzimidazol-2-yl]-2-methyl-3,13,19-triazatetracyclo[11.5.2.0^{5,7}.0^{16,20}]icosa-1(19),14,16(20),17-tetraen-4-one] | 57 |
| C[C@H]1NC(=O)[C@@H]2C[C@H]2CCCCCn2c(-c3nc4cc(C(=O)N[C@H]5CNCC[C@@H]5F)c(F)cc4n3CCOc3ccccc3)cc3ccc1nc32 [Example 429] | 68 |

Further compounds by falling IC50, results first:

| IC50 [nM] | Structure (SMILES) |
| --- | --- |
| 56 | COc1cc(C(=O)N2[C@H]3CC[C@@H]2[C@H](N)C3)cc2nc(-c3cc4ccc5nc4n3C[C@@H]3[C@H](COCCC(=O)N[C@@H]5C)C3(C)C)n(C)c12 (single isomer, unassigned) [Example 10, (3˜{R},5˜{S},12˜{R})-18-[5-[(1˜{R},2˜{R},4˜{S})-2-amino-7-azabicyclo[2.2.1]heptane-7-carbonyl]-7-methoxy-1-methyl-benzimidazol-2-yl]-4,4,12-trimethyl-7-oxa-1,11,20-triazatetracyclo[11.5.2.0^{3,5}.0^{16,19}]icosa-13(20),14,16(19),17-tetraen-10-one] |
| 44 | COc1cc(C(=O)N2[C@H]3CC[C@@H]2[C@H](N)C3)cc2nc(-c3cc4ccc5nc4n3CCCCCCCC(=O)N[C@@H]5C)n(C3CC3)c12 [Example 250, (11~{R})-17-[5-[(1~{R},2~{R},4~{S})-2-amino-7-azabicyclo[2.2.1]heptane-7-carbonyl]-1-cyclopropyl-7-methoxy-benzimidazol-2-yl]-11-methyl-1,10,19-triazatricyclo[10.5.2.0^{15,18}]nonadeca-12(19),13,15(18),16-tetraen-9-one] |
| 39 | COc1cc(C(=O)N2[C@H]3CC[C@@H]2[C@H](N)C3)cc2nc(-c3cc4ccc5nc4n3CCCCCCCC(=O)N[C@@H]5C(F)(F)F)n(C)c12 [Example 258, (11~{S})-17-[5-[(1~{R},2~{R},4~{S})-2-amino-7-azabicyclo[2.2.1]heptane-7-carbonyl]-7-methoxy-1-methyl-benzimidazol-2-yl]-11-(trifluoromethyl)-1,10,19-triazatricyclo[10.5.2.0^{15,18}]nonadeca-12(19),13,15(18),16-tetraen-9-one] |
| 17 | C[C@H]1NC(=O)[C@@H]2C[C@H]2CCCCCn2c(-c3nc4cc(C(=O)N5C[C@H](N)[C@@H]6CC[C@H]5C6)cc(OC(F)F)c4n3C3CC3)cc3ccc1nc32 [Example 759, (2~{R},5~{R},7~{R})-14-[5-[(1~{S},4~{R},5~{R})-4-amino-2-azabicyclo[3.2.1]octane-2-carbonyl]-1-cyclopropyl-7-(difluoromethoxy)benzimidazol-2-yl]-2-methyl-3,13,19-triazatetracyclo[11.5.2.0^ {5,7}.0^{16,20}]icosa-1(19), 14,16(20),17-tetraen-4-one] |
